The values that follow come from patent US20100286283A1, “MICROTUBULE-DISRUPTNG AGENT AND CANCER CELL PROLIFERATION INHIBITOR CONTAINING THE SAME” (priority 2007, published 2010).

Assay [1] has as its system tubulins. Briefly: Tubulin binding experiment, comigration in SDS-PAGE. The following applies: for influence on comigration of NBD-PZ-CO—CH═CH—(CH2)5—CH3 with tubulins: compound coexisting with the probe. How it is done: Tubulins and a fluorescence dye, NBD-PZ or NBD-PZ-CO—CH═CH—(CH2)5—CH3 were reacted and electrophoresis (SDS-PAGE) was then performed. Binding with the tubulins was determined with comigration (fluorescence derived from NBD-PZ was detected with tubulins).

In assay [2] the test system is various cancer cells (HGC-27 cells, AGS cells, KATO III cells, Jurkat cells, A549 cells, and SW620 cells). The experiment in a line: Viability (ED50) of various cancer cells. The format is cell-based. The settings on record: 24 hours culture. As for the experimental part: (§1) ED50: concentration of 6-shogaol, which decreases the cell viability to 0.5 (50%) as compared with the control.
(§2) ED50 of 6-shogaol was examined on various cancer cells (HGC-27 cells, AGS cells, KATO III cells, Jurkat cells, A549 cells, and SW620 cells) to evaluate whether or not 6-shogaol was also effective for cancer cells other than gastric cancer cells. The culturing time was set to 24 hours.

The subject of assay [3] is SH groups contained in tubulins. Briefly: Quantification of SH groups of tubulin, Ellman method. The format is biochemical. The following applies: tubulins 2 μM, 100 μM of 6-shogaol. How it is done: SH groups contained in tubulins are converted to 5,5′-dithiobis-nitrobenzoic acid into thionitrobenzoate, and an absorbance of the solution at a wavelength of 412 nm (Ellman reaction) increases. The absorbance (412 nm) was measured to evaluate an influence given to an amount of SH groups.
An α,β-unsaturated carbonyl compound having a larger molecular weight reacted with more SH groups in the tubulins, and as a result, the amount of the SH groups was decreased and the absorbance (412 nm) was lowered (FIG. 8).
Background: DTNB colorimetry detects thiols as they appear.

Another assay deals with A549 cells. The experiment in a line: Viability (ED50) of A549 cells. The format is cell-based. The following applies: 24 hours culture. How it is done: as §1, §2
The subject of assay [4] is gastric cancer cells (HGC-27 cells, AGS cells, and KATO III cells). The experiment in a line: Cell viability of gastric cancer cells, Cell Titer 96 cell proliferation assay. In kind it is cell-based. The following applies: 0 to 4 μg/ml, 24 hours, HGC-27, AGS. How it is done: 1×10^4 gastric cancer cells (HGC-27 cells, AGS cells, and KATO III cells) were seeded in 96 well-plates, and incubated with 6-shogaol (0 to 4 μg/ml) for 24 hours from the next day. Viability of the cells was evaluated in a coloring method using Cell Titer 96 cell proliferation assay (Promega Co., Madison, Wis.), and an absorbance was measured. In this assay, living cells develop color with a reagent, and as the number of living cells is larger, the absorbance is higher. The cell viability was calculated by (absorbance at each addition concentration of 6-shogaol)/(absorbance at 0 μg/ml). Therefore, the viable cell ratio was 1.0 on the basis of 0 μg/ml. 6-shogaol was purchased from Wako Pure Chemical Industries, Ltd. (Osaka, Japan) (purity of 98% or more). Each gastric cancer cell was available from the cell bank in RIKEN BioResource Center (RIKEN BRC cell bank) or ATCC (American Type Culture Collection).

The subject of assay [5] is HGC-27 cells. The experiment in a line: Influence on cell cycle, BrdU flow cytometry. In kind it is cell-based. The settings on record: 2 μg/ml, 18 hours. As for the experimental part:
2×10^5 gastric cancer cells (HGC-27 cells) were seeded in 12-well plates and incubated in the presence of 6-shogaol at 2 μg/ml for 18 hours from the next day, and then, further incubated in the presence of 10 μM of BrdU for 2 hours. In order to measure intake of BrdU in nuclei and DNA amounts in the nucleus, the cells were stained using a BrdU flow kit (BD Pharmingen, Inc., San Diego, Calif.). 10000 cells were analyzed with the flow cytometer manufactured by Beckman Coulter, Inc. (Fullerton, Calif.). The cells containing a large amount of DNA and a small amount of BrdU were considered to be in G2-M phase.
In general terms: Flow cytometry measures light scatter and fluorescence of single cells or particles in a stream.

For assay [6], the system named is gastric cancer cells (HGC-27 cells). The experiment in a line: Effect on tumor of gastric cancer cells transplanted to a nude mouse. In kind it is in vivo. The following applies: 400 μl at 0 to 200 μg/ml into the abdominal cavity for 8 days; HGC-27 subcutaneous tumor. How it is done:
2.5×10^6 gastric cancer cells (HGC-27 cells) were subcutaneously inoculated into the flank of a nude mouse (7-week-old, purchased from Japan SLC, Inc.). After 3 weeks when the tumors had reached an average volume of approximately 40 mm^3, and then 400 μl of 6-shogaol at 0 to 200 μg/ml was administered into the abdominal cavity for 8 days. The tumor volume was measured before the first administration of 6-shogaol and after one day from the eighth administration. Comparing volumes of the tumor before and after administration of 6-shogaol, its magnification was evaluated as a growth ratio of the tumor.

The test system of assay [7] is HGC-27 cells. The experiment in a line: Viable cell ratio of HGC-27 cells, CellTiter96 cell proliferation assay. In kind it is cell-based. The settings on record: 0 to 40 μM, 24 hours. As for the experimental part: 1×10^4 gastric cancer cells (HGC-27 cells) were seeded in 96-well plates, and incubated with CH3—CO—CH═CH—(CH2)4—CH3, CH3—CO—(CH2)6—CH3 or CH3—CH2—CH═CH—(CH2)4—CH3 (0 to 40 μM) for 24 hours from the next day. Cell viability was evaluated in a coloring method using CellTiter96 cell proliferation assay (Promega Co., Madison, Wis.), and an absorbance was measured. In this assay, living cells develop color with a reagent, and as the number of living cells is larger, the absorbance is higher. The viable cell ratio was calculated by (absorbance at each addition concentration)/(absorbance at 0 μM). Therefore, the viable cell ratio was 1.0 on the basis of 0 μM.

Assay [8] concerns tubulins. The experiment in a line: Tubulin polymerization experiment, absorbance at 340 nm. In kind it is biochemical. The settings on record: 20 μM tubulins. How it is done: Polymerization of 20 μM of tubulins was evaluated by measuring an absorbance at a wavelength of 340 nm.
Along with gradually polymerizing tubulins in a polymerization solution (80 mM PIPES, pH 6.9, 2 mM MgCl2, 0.5 mM EGTA, 5% glycerol and 1 mM GTP), an absorbance of the solution at a wavelength of 340 nm increases. The absorbance (340 nm) was measured in every 5 minutes to thus evaluate an influence given to the polymerization.

Assay [9] has as its system HGC-27 cells. Briefly: Immunostaining of actin and tubulins in gastric cancer cells. In kind it is cell-based. The following applies: 40 μM, 6 hours. As for the experimental part: Gastric cancer cells (HGC-27 cells) were incubated with 6-shogaol at 2 μg/ml for 6 hours and then fixed, and actin was fluorescent-stained with Alexa Fluor phalloidin (Molecular Probes Inc., Eugene, Oreg.), and tubulins were fluorescent-stained with an anti-tubulin β antibody (Lab Vision Co., Fremont, Calif.) and Alexa Fluor 488 labeled second antibody (Molecular Probes, Inc.).
Gastric cancer cells (HGC-27 cells) were incubated with CH3—CO—CH═CH—(CH2)4—CH3, CH3—CO—(CH2)6—CH3 or CH3—CH2—CH═CH—(CH2)4—CH3 (40 μM) for 6 hours and then fixed, and tubulins were fluorescent-stained with anti-tubulin β antibody (Lab Vision Co., Fremont, Calif.) and Alexa Fluor 488 labeling second antibody (Molecular Probes, Inc.).

Molecules are shown by their SMILES.

For the compound `CCCCC/C=C/C(=O)CCc1ccc(O)c(OC)c1` [6-shogaol], in the assay on tubulins [1], the “influence on comigration of NBD-PZ-CO—CH═CH—(CH2)5—CH3 with tubulins” value is reported as “the comigration was inhibited”. Moreover, in assay [2], the “viability of various cancer cells” value is given as “decreased the viability”. Also, in [3], the “amount of SH groups contained in the tubulins” value is “approximately the same effect as 500 μM of CH3—CO—CH═CH—(CH2)5—CH3”. Also, the “susceptibility to 6-shogaol compared with the other cancer cells” value with A549 cells is on record as “low”. Moreover, the cell viability result in assay [4] is “decreased the cell viability”. Also, in the assay on HGC-27 cells [5], the “ratio of cells in G2-M stage” value is listed as “significantly increased”. The “growth ratio of tumor” value in assay [6] is reported as “the growth of the tumor was inhibited”.
Consider `CCCCCCCC(C)=O` [CH3—CO—(CH2)6—CH3], for which, in the assay with HGC-27 cells [7], the viable cell ratio entry is recorded as “only CH3—CO—CH═CH—(CH2)4—CH3 (∘) decreased the viable cell ratio”. In addition, the polymerization of tubulins result in the assay with tubulins [8] (500 μM compound) is listed as “gave no influence”. The “reticulate distribution of tubulins (structure of microtubule)” value (“reticulate distribution of tubulins” for short) in the assay on HGC-27 cells [9] was “only CH3—CO—CH═CH—(CH2)4—CH3 inhibited a reticulate distribution of tubulins”.
Turning to `CCCCC[C@H](O)CC(=O)CCc1ccc(O)c(OC)c1` [6-gingerol], the “influence on comigration of NBD-PZ-CO—CH═CH—(CH2)5—CH3 with tubulins” value in the assay on tubulins [1] is “did not give an influence on comigration”.
`CCCCCC=CC(C)=O` [CH3—CO—CH═CH—(CH2)4—CH3]: the viable cell ratio result in the assay on HGC-27 cells [7] is “decreased the viable cell ratio”. For the same compound, the polymerization of tubulins result with tubulins [8] (250 μM compound) and in the assay on tubulins [8] (500 μM compound) was “inhibited polymerization of tubulins” throughout. Further, the “reticulate distribution of tubulins” value with HGC-27 cells [9] is reported as “inhibited a reticulate distribution of tubulins”.
Turning to `CCC=CCCCCC` [CH3—CH2—CH═CH—(CH2)4—CH3], the viable cell ratio entry in the assay on HGC-27 cells [7] is on record as “only CH3—CO—CH═CH—(CH2)4—CH3 (∘) decreased the viable cell ratio”. In addition, the polymerization of tubulins entry in the assay on tubulins [8] (500 μM compound) is “gave no influence”. Besides, in the assay with HGC-27 cells [9], the “reticulate distribution of tubulins” value is listed as “only CH3—CO—CH═CH—(CH2)4—CH3 inhibited a reticulate distribution of tubulins”.
As to `CCCCCCC=CC(=O)N1CCN(c2ccc([N+](=O)[O-])c3nonc23)CC1` [NBD-PZ-CO—CH═CH—(CH2)5—CH3], the “binding with tubulins (comigration)” value with tubulins [1] (probe reacted with tubulins, SDS-PAGE) was “comigrated with the tubulins”.
